# Test results: paper PMC6010128, “Structure–activity relationship investigation of tertiary amine derivatives of cinnamic acid as acetylcholinesterase and butyrylcholinesterase inhibitors: compared with that of phenylpropionic acid, sorbic acid and hexanoic acid” (Journal of Enzyme Inhibition and Medicinal Chemistry, 2018)
# Like-named read-outs stand apart in the source and are kept apart here.
# Assays:
# [1] = target: AChE (Rattus norvegicus, UniProt P37136); test: biochemical
# [2] = target: BChE (Rattus norvegicus, UniProt Q9JKC1); test: biochemical; design: species or system Sprague–Dawley rat
# [3] = Log P by shake flask method; assay type: physicochemical; settings: octanol / PBS pH = 7.4, shake flask
# Protocol: Log P is defined as the logarithm of octanol–water partition coefficient. […] Ultraviolet spectrophotometry was applied to determine the concentration of compounds. Log p values were calculated based on the data in triplicate.
# [4] = pKa by pH-titration method; assay type: physicochemical
# Protocol: pKa is determined by pH-titration method according to the report. The titration curve E vs. VT was recorded and pKa value was calculated.
# [5] = rat brain AChE, Mean ± SD, triplicate
# [6] = rat serum BChE, Mean ± SD, triplicate
# Chain of AChE (P37136 32-614): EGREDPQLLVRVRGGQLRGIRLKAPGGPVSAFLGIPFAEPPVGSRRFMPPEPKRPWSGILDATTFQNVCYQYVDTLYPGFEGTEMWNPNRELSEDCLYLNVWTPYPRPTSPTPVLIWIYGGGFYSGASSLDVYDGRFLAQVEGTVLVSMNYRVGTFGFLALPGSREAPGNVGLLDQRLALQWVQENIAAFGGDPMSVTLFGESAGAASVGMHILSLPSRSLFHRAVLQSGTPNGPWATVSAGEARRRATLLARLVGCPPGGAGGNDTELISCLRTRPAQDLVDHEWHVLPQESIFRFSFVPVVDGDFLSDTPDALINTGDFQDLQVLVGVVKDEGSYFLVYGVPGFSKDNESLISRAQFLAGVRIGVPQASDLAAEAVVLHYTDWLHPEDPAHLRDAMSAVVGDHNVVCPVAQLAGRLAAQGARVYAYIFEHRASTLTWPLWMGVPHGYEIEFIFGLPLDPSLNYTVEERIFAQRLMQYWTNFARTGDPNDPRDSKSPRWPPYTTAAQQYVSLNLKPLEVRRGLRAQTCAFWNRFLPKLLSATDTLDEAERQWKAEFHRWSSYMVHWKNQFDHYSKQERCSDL
# Chain of BChE (Q9JKC1 24-597): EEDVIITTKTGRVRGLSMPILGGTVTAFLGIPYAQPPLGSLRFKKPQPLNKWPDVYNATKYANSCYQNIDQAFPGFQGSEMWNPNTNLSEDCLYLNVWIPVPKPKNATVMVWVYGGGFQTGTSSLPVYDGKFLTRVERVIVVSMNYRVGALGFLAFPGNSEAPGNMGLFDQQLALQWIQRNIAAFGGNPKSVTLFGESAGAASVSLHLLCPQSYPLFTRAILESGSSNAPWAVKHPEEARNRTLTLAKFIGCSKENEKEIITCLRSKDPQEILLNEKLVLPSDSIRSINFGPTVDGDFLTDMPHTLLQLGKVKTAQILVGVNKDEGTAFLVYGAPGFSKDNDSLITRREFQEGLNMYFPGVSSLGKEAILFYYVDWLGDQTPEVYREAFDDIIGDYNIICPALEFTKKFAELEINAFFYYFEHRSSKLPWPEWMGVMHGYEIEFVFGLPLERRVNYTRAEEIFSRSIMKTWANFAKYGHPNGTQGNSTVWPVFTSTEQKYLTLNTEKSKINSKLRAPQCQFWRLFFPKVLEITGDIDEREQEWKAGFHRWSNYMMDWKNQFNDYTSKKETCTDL
compound,measurement,setting,value
C/C=C/C=C/C(=O)Nc1ccccc1OCCN(CC)CC [Compound 16e],IC50,[1]; [5],> 500 µM
same,IC50,[2]; [6],91.8 ± 1.45 µM
same,logP,[3],2.18
same,pKa,[4]; read-out: pKa,7.53
C/C=C/C=C/C(=O)Nc1ccccc1OCCN1CCCCC1 [Compound 16f],Selectivity for AChE,[1]; IC50 (BChE)/IC50 (AChE),0.16
same,IC50,[1]; [5],170 ± 4.11 µM
same,IC50,[2]; [6],27.7 ± 1.29 µM
same,logP,[3],0.67
same,pKa,[4]; read-out: pKa,6.86
C/C=C/C=C/C(=O)Nc1ccccc1OCCN1CCCC1 [Compound 16g],Selectivity for AChE,[1]; IC50 (BChE)/IC50 (AChE),0.08
same,IC50,[1]; [5],278 ± 4.58 µM
same,IC50,[2]; [6],21.9 ± 0.99 µM
same,logP,[3],0.97
same,pKa,[4]; read-out: pKa,7.32
C/C=C/C=C/C(=O)Nc1cccc(OCCN(C)C)c1 [Compound 17d],Selectivity for AChE,[1]; IC50 (BChE)/IC50 (AChE),0.96
same,IC50,[1]; [5],52.47 ± 0.39 µM
same,IC50,[2]; [6],50.43 ± 0.46 µM
same,logP,[3],0.99
same,pKa,[4]; read-out: pKa,7.23
C/C=C/C=C/C(=O)Nc1cccc(OCCN(CC)CC)c1 [Compound 17e],Selectivity for AChE,[1]; IC50 (BChE)/IC50 (AChE),0.81
same,IC50,[1]; [5],98.7 ± 1.89 µM
same,IC50,[2]; [6],79.5 ± 1.43 µM
same,logP,[3],1.72
same,pKa,[4]; read-out: pKa,7.58
C/C=C/C=C/C(=O)Nc1cccc(OCCN2CCCCC2)c1 [Compound 17f],Selectivity for AChE,[1]; IC50 (BChE)/IC50 (AChE),0.76
same,IC50,[1]; [5],44.2 ± 1.36 µM
same,IC50,[2]; [6],33.6 ± 1.59 µM
same,logP,[3],2.23
same,pKa,[4]; read-out: pKa,7.17
C/C=C/C=C/C(=O)Nc1cccc(OCCN2CCCC2)c1 [Compound 17g],Selectivity for AChE,[1]; IC50 (BChE)/IC50 (AChE),1.51
same,IC50,[1]; [5],18.8 ± 0.63 µM
same,IC50,[2]; [6],28.5 ± 1.24 µM
same,logP,[3],1.41
same,pKa,[4]; read-out: pKa,7.06
C/C=C/C=C/C(=O)Nc1ccc(OCCN(C)C)cc1 [Compound 18d],Selectivity for AChE,[1]; IC50 (BChE)/IC50 (AChE),17.5
same,IC50,[1]; [5],12.6 ± 0.89 µM
same,IC50,[2]; [6],222 ± 8.63 µM
same,logP,[3],1.79
same,pKa,[4]; read-out: pKa,7.21
C/C=C/C=C/C(=O)Nc1ccc(OCCN(CC)CC)cc1 [Compound 18e],Selectivity for AChE,[1]; IC50 (BChE)/IC50 (AChE),0.50
same,IC50,[1]; [5],189 ± 4.55 µM
same,IC50,[2]; [6],94.5 ± 4.26 µM
same,logP,[3],1.31
same,pKa,[4]; read-out: pKa,7.16
C/C=C/C=C/C(=O)Nc1ccc(OCCN2CCCCC2)cc1 [Compound 18f],Selectivity for AChE,[1]; IC50 (BChE)/IC50 (AChE),22.1
same,IC50,[1]; [5],12.3 ± 0.76 µM
same,IC50,[2]; [6],271 ± 4.56 µM
same,logP,[3],1.61
same,pKa,[4]; read-out: pKa,7.06
C/C=C/C=C/C(=O)Nc1ccc(OCCN2CCCC2)cc1 [Compound 18g],Selectivity for AChE,[1]; IC50 (BChE)/IC50 (AChE),8.63
same,IC50,[1]; [5],13.6 ± 1.24 µM
same,IC50,[2]; [6],118 ± 6.79 µM
same,logP,[3],1.18
same,pKa,[4]; read-out: pKa,7.73
CCCCCC(=O)Nc1ccccc1OCCN(C)C [Compound 22d],IC50,[1],186 ± 8.22 µM
same,Selectivity for AChE,[1],0.14
same,IC50,[2],26.6 ± 1.36 µM
same,Log P,[3],1.23
same,pKa,[4],7.32
CCCCCC(=O)Nc1ccccc1OCCN(CC)CC [Compound 22e],Selectivity for AChE,[1]; IC50 (BChE)/IC50 (AChE),<0.07
same,IC50,[1]; [5],> 500 µM
same,IC50,[2]; [6],37.2 ± 2.24 µM
same,logP,[3],1.67
same,pKa,[4]; read-out: pKa,7.08
CCCCCC(=O)Nc1ccccc1OCCN1CCCCC1 [Compound 22f],Selectivity for AChE,[1]; IC50 (BChE)/IC50 (AChE),0.03
same,IC50,[1]; [5],325 ± 7.65 µM
same,IC50,[2]; [6],9.04 ± 0.27 µM
same,logP,[3],1.11
same,pKa,[4]; read-out: pKa,6.99
CCCCCC(=O)Nc1ccccc1OCCN1CCCC1 [Compound 22g],Selectivity for AChE,[1]; IC50 (BChE)/IC50 (AChE),<0.04
same,IC50,[1]; [5],> 500 µM
same,IC50,[2]; [6],18.6 ± 0.32 µM
same,logP,[3],1.11
same,pKa,[4]; read-out: pKa,7.16
CCCCCC(=O)Nc1cccc(OCCN(C)C)c1 [Compound 23d],Selectivity for AChE,[1]; IC50 (BChE)/IC50 (AChE),0.13
same,IC50,[1]; [5],60.6 ± 2.18 µM
same,IC50,[2]; [6],7.89 ± 0.89 µM
same,logP,[3],0.37
same,pKa,[4]; read-out: pKa,6.52
CCCCCC(=O)Nc1cccc(OCCN(CC)CC)c1 [Compound 23e],Selectivity for AChE,[1]; IC50 (BChE)/IC50 (AChE),0.01
same,IC50,[1]; [5],125 ± 4.23 µM
same,IC50,[2]; [6],0.67 ± 0.04 µM
same,logP,[3],0.93
same,pKa,[4]; read-out: pKa,7.15
CCCCCC(=O)Nc1cccc(OCCN2CCCCC2)c1 [Compound 23f],Selectivity for AChE,[1]; IC50 (BChE)/IC50 (AChE),0.002
same,IC50,[1]; [5],76.7 ± 3.17 µM
same,IC50,[2]; [6],0.22 ± 0.02 µM
same,logP,[3],1.55
same,pKa,[4]; read-out: pKa,7.32
CCCCCC(=O)Nc1cccc(OCCN2CCCC2)c1 [Compound 23g],Selectivity for AChE,[1]; IC50 (BChE)/IC50 (AChE),0.01
same,IC50,[1]; [5],50.7 ± 2.66 µM
same,IC50,[2]; [6],0.34 ± 0.01 µM
same,logP,[3],1.37
same,pKa,[4]; read-out: pKa,7.69
CCCCCC(=O)Nc1ccc(OCCN(C)C)cc1 [Compound 24d],Selectivity for AChE,[1]; IC50 (BChE)/IC50 (AChE),0.81
same,IC50,[1]; [5],41.7 ± 2.89 µM
same,IC50,[2]; [6],33.8 ± 4.21 µM
same,logP,[3],0.72
same,pKa,[4]; read-out: pKa,7.16
CCCCCC(=O)Nc1ccc(OCCN(CC)CC)cc1 [Compound 24e],Selectivity for AChE,[1]; IC50 (BChE)/IC50 (AChE),<0.02
same,IC50,[1]; [5],> 500 µM
same,IC50,[2]; [6],9.9 ± 1.28 µM
same,logP,[3],1.1
same,pKa,[4]; read-out: pKa,7.48
CCCCCC(=O)Nc1ccc(OCCN2CCCCC2)cc1 [Compound 24f],Selectivity for AChE,[1]; IC50 (BChE)/IC50 (AChE),0.54
same,IC50,[1]; [5],31.7 ± 2.74 µM
same,IC50,[2]; [6],17 ± 2.03 µM
same,logP,[3],1.54
same,pKa,[4]; read-out: pKa,7.16
CCCCCC(=O)Nc1ccc(OCCN2CCCC2)cc1 [Compound 24g],Selectivity for AChE,[1]; IC50 (BChE)/IC50 (AChE),0.82
same,IC50,[1]; [5],16.9 ± 0.91 µM
same,IC50,[2]; [6],13.9 ± 1.66 µM
same,logP,[3],0.16
same,pKa,[4]; read-out: pKa,6.92
"CCN(C)C(=O)Oc1cccc([C@H](C)N(C)C)c1 [Rivastigmine, reference compound]",logP,[3],1.68
same,pKa,[4]; read-out: pKa,5.93
